From patent publication US20110230430A1, “SAPONIN EXTRACT FROM SAPONARIA SPP. AND USES THEREOF” (NATIONAL RESEARCH COUNCIL OF CANADA, priority 2008, published 2011)

Legend:
Assay type in all cases: cell-based, human
HT-29 cancer cells = experiment: Dual Sensor: MitoCasp Assay in HT-29 colon cancer cells; conditions: HT-29 cells, 2.5 μM, 5.0 μM and 10 μM, 23 hours
Text: Techniques to assay enzymatic and signaling processes involved in apoptosis have been developed as standard protocols. One example of an early step in apoptosis, is the release of cytochrome C from mitochondria and the activation of caspase-3. Induction of the caspases (a series of cytosolic proteases) is one of the most consistently observed features of apoptosis. Caspases are a family of proteolytic enzymes that transmit the apoptotic signal using a proteolytic cascade. […] Caspases 3 and 7 are effector caspases, central to the caspase cascade pathways. In particular, caspase-3 plays a central role in the process. When caspases are activated, they cleave target proteins; one of the most important of these is poly-(ADP-ribose) polymerase (PARP), which is a protein located in the nucleus. Therefore, assays detecting release of cytochrome C, detecting caspase-3 activity and detecting PARP degradation are effective determinants of apoptosis. The loss of mitochondrial membrane potential is known to occur during apoptosis. […] Collapse of the mitochondrial membrane potential during apoptosis prevents the dye from accumulating in the mitochondria resulting in a decrease in fluorescent intensity that can be detected with flow cytometry. […] In this assay, caspase 3/7 activity is detected using a cell permeable carboxyfluorescein labeled caspase inhibitor, which binds covalently to active caspases 3 and 7. Cells that contain bound inhibitor are detected by an increase in fluorescence when samples are analyzed by flow cytometry.
Following PC1448 treatment, adherent and non-adherent cells were harvested and washed with cold PBS. […] Samples were analyzed by flow cytometry measuring the fluorescence emissions from 515 nm to 530 nm for caspase detection, and 574 nm to 600 nm for mitochondrial membrane potential detection. […]
HT-29 cancer cells were treated with 2.5 μM, 5.0 μM and 10 μM of PC1526 or PC1448 for 23 hours, or with 2.5 μM, 5.0 μM and 10 μM PC1422 for 24 hours and assessed using the Dual Sensor: MitoCasp™ Assay. […]

CRL-2522 cells = experiment: APO LOGIX Carboxyfluorescein Caspase 9 Detection Kit in CRL-2522 cells
Text: In a still further apoptotic assay, apoptosis can be measured by the APO LOGIX™ Carboxyfluorescein Caspase 9 Detection Kit. The APO LOGIX™ Carboxyfluorescein Caspase 9 Detection Kit uses a cell permeable carboxyfluorescein labeled caspase inhibitor, which binds covalently to active caspases 9. Caspase 9 is involved in initiating apoptosis through the mitochondrial pathway (Budihardjo I., et al. 1999). Cells that contain bound inhibitor are detected by an increase in fluorescence when samples are analyzed by flow cytometry.
CRL-2522 cells, acquired from ATCC, (American Type Culture Collection) are normal fibroblast cells that originated from human foreskin. CRL-2522 cells were maintained in RPMI 1640 medium (Gibco) supplemented with 10% fetal bovine serum (Cansera), 100 U/mL penicillin, 100 μg/mL streptomycin and 0.25 μg/mL amphotericin B. Cultures were maintained in medium at 37° C. with 5% CO2 and 100% relative humidity.
CRL-2522 cells were treated with PC1448 and assayed for apoptosis as described above for PC-3 cells.

[1] = test system: MDA-MB-231 (breast cancer) cells; experiment: Hoechst 33342 staining of MDA-MB-231 cells; conditions: 7 μM PC1448, 24 hours
Text: Apoptosis can also be measured by Hoechst 33342 Staining. Cells undergoing apoptosis show several characteristic morphological changes. These changes include cell shrinkage and rounding, and the formation of cytoplasmic blebs on the cell surface. Nuclear material condenses along the edge of the nucleus followed by complete condensation and nuclear fragmentation (Hacker, G., 2000). Apoptotic cells eventually break up into membrane bound vesicles, which are known as apoptotic bodies. Hoechst 33342 is a fluorescent DNA-binding dye that allows visualization of chromatin distribution within a cell. Apoptotic nuclei have highly condensed chromatin, often in crescent shapes around the periphery of the nucleus.
A further indication of apoptotic activity, in addition to the assays described above, can be derived from observations of changes in cell architecture evident after induction of apoptosis. Hoechst 33342 is a fluorescent DNA-binding dye that allows visualization of chromatin distribution within a cell.
Cells undergoing apoptosis show several characteristic morphological changes. These changes include cell shrinkage and rounding, and the formation of cytoplasmic blebs on the cell surface. Nuclear material condenses along the edge of the nucleus followed by complete condensation and nuclear fragmentation (Hacker, G., 2000). […]

Question: Which results are given for Segetoside H [PC1448]?
Answer: Caspase 3/7 activity compared to untreated cells / induction of apoptosis (in words, FIG. 5) (HT-29 cancer cells): increase in caspase 3/7 activity; Change in Caspase 9 positive cells (in words) (CRL-2522 cells; 14 μM PC1448, 10 to 48 hr): No increase in Caspase 9 positive cells; Caspase 9 positive cells (CRL-2522 cells; 14 μM PC1448, 10 hr): 15.9%; Caspase 9 positive cells (CRL-2522 cells; 14 μM PC1448, 24 hr): 10.6%; Caspase 9 positive cells (CRL-2522 cells; 14 μM PC1448, 48 hr): 9.5%; Nuclear morphology after Hoechst 33342 staining (in words, FIG. 4) [1]: nuclear changes characteristic of apoptotic cells
